Test results as given in patent publication US11753407B2, “Compounds for treating spinal muscular atrophy” (PTC Therapeutics, Inc., priority 2012, dated 2023).

Key:
[1] = tested on: Smn protein in SMA patient fibroblast cells (GM03813); assay: Smn protein assay in cultured cells (SMN HTRF); format: cell-based, human; details: SMA patient fibroblast cells, 48 hours; for EC1.5x for Smn protein expression: 7-point concentration curve, SMN HTRF, concentration producing 1.5 times Smn protein vs DMSO vehicle control; for maximum fold (Fold) increase of Smn protein: 7-point concentration data, fold relative to vehicle control
How it was run: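 Smn protein abundance in treated SMA fibroblasts was measured by HTRF after 48 h compound exposure. The reported EC1.5× is the concentration producing 1.5 times vehicle Smn levels.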

[2] = tested on: SMN2 minigene mRNA (SMN2-A minigene) in HEK293H cells; assay: SMN2 minigene mRNA splicing RT-qPCR assay in cultured cells; format: cell-based, human; details: Homo sapiens, HEK293-H; concentration increasing full length SMN2 mRNA 1.5-fold relative to vehicle-treated cells; HEK293H cells with SMN2-A minigene, 24 hours, 7-point concentration data; read-out: EC1.5x for production of full length SMN2 mRNA
How it was run: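 Potency reflects the concentration that lifts full-length SMN2 minigene mRNA 1.5-fold above vehicle in stably transfected HEK293H cells after 24 h of treatment. Transcript abundance came from RT-qPCR as (1+E)^−Ct, normalized to GAPDH; endogenous SMN1/SMN2 are not detected.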

| SMILES | melting point [°C] | EC1.5x for Smn protein expression [1] | maximum fold (Fold) increase of Smn protein [1] | EC (1.5-fold increase) [2] [µM] |
| --- | --- | --- | --- | --- |
| Cc1cn2cc(-c3cc(=O)n4cc(C5=CCNCC5)ccc4n3)ccc2n1 [Compound 429, 2-(2-methylimidazo[1,2-a]pyridin-6-yl)-7-(1,2,3,6-tetrahydropyridin-4-yl)-4H-pyrido[1,2-a]pyrimidin-4-one] | 206 to 208 | **** (an EC1.5x≤0.3 μM is indicated by four stars (****)) | **** (a fold increase between >1.5 and ≤1.65 is indicated by four stars (****)) | < 0.1 |
| Cc1cn2cc(-c3cc(=O)n4cc(C5=CCN(C)CC5)ccc4n3)ccc2n1 [Compound 430, 2-(2-methylimidazo[1,2-a]pyridin-6-yl)-7-(1-methyl-1,2,3,6-tetrahydropyridin-4-yl)-4H-pyrido[1,2-a]pyrimidin-4-one] | 137 to 140 | **** (an EC1.5x≤0.3 μM is indicated by four stars (****)) | **** (a fold increase between >1.5 and ≤1.65 is indicated by four stars (****)) | < 0.1 |
| CCN1CC=C(c2ccc3nc(-c4ccc5nc(C)cn5c4)cc(=O)n3c2)CC1 [Compound 431, 7-(1-ethyl-1,2,3,6-tetrahydropyridin-4-yl)-2-(2-methylimidazo[1,2-a]pyridin-6-yl)-4H-pyrido[1,2-a]pyrimidin-4-one] | 220 to 223 | **** (an EC1.5x≤0.3 μM is indicated by four stars (****)) | ***** (a fold increase >1.65 is indicated by five stars (*****)) | < 0.1 |
| CCc1cc(C2CCN(C)CC2)cn2c(=O)cc(-c3ccc(OC)c(OC)c3)nc12 [Compound 434, 2-(3,4-dimethoxyphenyl)-9-ethyl-7-(1-methylpiperidin-4-yl)-4H-pyrido[1,2-a]pyrimidin-4-one] | 146 | – | ** (a fold increase between >1.2 and ≤1.35 is indicated by two stars (**)) | 0.3 to 1 |
| CCN(CC)C1CCN(c2cc(C)c3nc(-c4ccc(OC)c(OC)c4)cc(=O)n3c2)CC1 [Compound 435, 7-[4-(diethylamino)piperidin-1-yl]-2-(3,4-dimethoxyphenyl)-9-methyl-4H-pyrido[1,2-a]pyrimidin-4-one] | 149 to 155 | – | *** (a fold increase between >1.35 and ≤1.5 is indicated by three stars (***)) | 0.1 to 0.3 |
| CCc1cc(C2CCN(CC)CC2)cn2c(=O)cc(-c3ccc(OC)c(OC)c3)nc12 [Compound 436, 2-(3,4-dimethoxyphenyl)-9-ethyl-7-(1-ethylpiperidin-4-yl)-4H-pyrido[1,2-a]pyrimidin-4-one] | 157 to 162 | – | ** (a fold increase between >1.2 and ≤1.35 is indicated by two stars (**)) | 0.3 to 1 |

The next lines start with results.

| melting point [°C] | SMILES | EC1.5x for Smn protein expression [1] | maximum fold (Fold) increase of Smn protein [1] | EC (1.5-fold increase) [2] [µM] |
| --- | --- | --- | --- | --- |
| 236 to 238 | Cc1cn2nc(-c3cc(=O)n4cc(N5CCC(N6CCCCC6)CC5)ccc4n3)cc2c(C)n1 [Compound 426, 7-(1,4′-bipiperidin-1′-yl)-2-(4,6-dimethylpyrazolo[1,5-a]pyrazin-2-yl)-4H-pyrido[1,2-a]pyrimidin-4-one] | *** (an EC1.5× between >0.3 μM and ≤1 μM is indicated by three stars (***)) | ***** (a fold increase >1.65 is indicated by five stars (*****)) | 0.3 to 1 |
| 198 to 200 | Cc1cn2nc(-c3cc(=O)n4cc(N5CCC(N6CCN(C)CC6)CC5)ccc4n3)cc2c(C)n1 [Compound 427, 2-(4,6-dimethylpyrazolo[1,5-a]pyrazin-2-yl)-7-[4-(4-methylpiperazin-1-yl)piperidin-1-yl]-4H-pyrido[1,2-a]pyrimidin-4-one] | * (An EC1.5× for Smn protein expression between >3 μM and ≤10 μM is indicated by one star (*)) | *** (a fold increase between >1.35 and ≤1.5 is indicated by three stars (***)) | 1 to 3 |
| 192 to 195 | Cc1cn2nc(-c3cc(=O)n4cc(N5CCC(N6CCOCC6)CC5)ccc4n3)cc2c(C)n1 [Compound 428, 2-(4,6-dimethylpyrazolo[1,5-a]pyrazin-2-yl)-7-[4-(morpholin-4-yl)piperidin-1-yl]-4H-pyrido[1,2-a]pyrimidin-4-one] | ** (an EC1.5× between >1 μM and ≤3 μM is indicated by two stars (**)) | *** (a fold increase between >1.35 and ≤1.5 is indicated by three stars (***)) | 0.3 to 1 |
| 204 to 206 | Cc1cn2cc(-c3cc(=O)n4cc(N5CCC(N(C)C)CC5)ccc4n3)ccc2n1 [Compound 432, 7-[4-(dimethylamino)piperidin-1-yl]-2-(2-methylimidazo[1,2-a]pyridin-6-yl)-4H-pyrido[1,2-a]pyrimidin-4-one] | **** (an EC1.5x≤0.3 μM is indicated by four stars (****)) | ***** (a fold increase >1.65 is indicated by five stars (*****)) | < 0.1 |
| 185 to 193 | COc1ccc(-c2cc(=O)n3cc(N4CCC(NCCO)CC4)cc(C)c3n2)cc1OC [Compound 433, 2-(3,4-dimethoxyphenyl)-7-{4-[(2-hydroxyethyl)amino]piperidin-1-yl}-9-methyl-4H-pyrido[1,2-a]pyrimidin-4-one] | – | *** (a fold increase between >1.35 and ≤1.5 is indicated by three stars (***)) | < 0.1 |
| 230 to 232 | Cc1cn2cc(-c3cc(=O)n4cc(N5CCC(N6CCCC6)CC5)ccc4n3)ccc2n1 [Compound 437, 2-(2-methylimidazo[1,2-a]pyridin-6-yl)-7-[4-(pyrrolidin-1-yl)piperidin-1-yl]-4H-pyrido[1,2-a]pyrimidin-4-one] | *** (an EC1.5× between >0.3 μM and ≤1 μM is indicated by three stars (***)) | **** (a fold increase between >1.5 and ≤1.65 is indicated by four stars (****)) | 0.1 to 0.3 |
| 298 to 300 | Cc1cn2cc(-c3cc(=O)n4cc(C5CCNCC5)ccc4n3)ccc2n1 [Compound 438, 2-(2-methylimidazo[1,2-a]pyridin-6-yl)-7-(piperidin-4-yl)-4H-pyrido[1,2-a]pyrimidin-4-one] | **** (an EC1.5x≤0.3 μM is indicated by four stars (****)) | ***** (a fold increase >1.65 is indicated by five stars (*****)) | < 0.1 |
| 240 to 242 | Cc1nc2ccc(-c3cc(=O)n4cc(C5CCN(C)CC5)ccc4n3)cc2s1 [Compound 439, 2-(2-methyl-1,3-benzothiazol-6-yl)-7-(1-methylpiperidin-4-yl)-4H-pyrido[1,2-a]pyrimidin-4-one] | ** (an EC1.5× between >1 μM and ≤3 μM is indicated by two stars (**)) | *** (a fold increase between >1.35 and ≤1.5 is indicated by three stars (***)) | 0.1 to 0.3 |
